Publication PMC6146087, “α-Glucosidase Inhibitors From the Coral-Associated Fungus Aspergillus terreus” (Frontiers in Chemistry, 2018)

Target: T1, α-glucosidase enzyme from Saccharomyces cerevisiae (Saccharomyces cerevisiae, UniProt P53341)
T1 construct: purchased Sigma Aldrich, USA
Experiment: biochemical
Description: The α-glucosidase enzyme from Saccharomyces cerevisiae (Sigma Aldrich, USA) solution (1.5 U/mL) was prepared by dissolving the α-glucosidase in […] phosphate buffer (pH 6.8). The α-glucosidase enzyme solution (20 μL), test compounds (10 μL) and buffer (40 μL) were pipetted and mixed in a 96 well microtiter plate. The mixture was incubated at 37°C for 10 min. After incubation, p-nitrophenyl-α-D-glucopyranoside (PNP-G) substrate solution (10 μL, in 20 mM phosphate buffer) was added. The increment of absorbance due to the hydrolysis of PNP-G by α-glucosidase was measured at the wavelength of 410 nm with a microplate reader (Thermo Scientific, Waltham, MA). […] The α-glucosidase inhibitory activity was expressed as percentage inhibition and was calculated using the following formula: inhibition (%) = [1–(ODsample/ODblank)] × 100.

T1 sequence (P53341 whole entry): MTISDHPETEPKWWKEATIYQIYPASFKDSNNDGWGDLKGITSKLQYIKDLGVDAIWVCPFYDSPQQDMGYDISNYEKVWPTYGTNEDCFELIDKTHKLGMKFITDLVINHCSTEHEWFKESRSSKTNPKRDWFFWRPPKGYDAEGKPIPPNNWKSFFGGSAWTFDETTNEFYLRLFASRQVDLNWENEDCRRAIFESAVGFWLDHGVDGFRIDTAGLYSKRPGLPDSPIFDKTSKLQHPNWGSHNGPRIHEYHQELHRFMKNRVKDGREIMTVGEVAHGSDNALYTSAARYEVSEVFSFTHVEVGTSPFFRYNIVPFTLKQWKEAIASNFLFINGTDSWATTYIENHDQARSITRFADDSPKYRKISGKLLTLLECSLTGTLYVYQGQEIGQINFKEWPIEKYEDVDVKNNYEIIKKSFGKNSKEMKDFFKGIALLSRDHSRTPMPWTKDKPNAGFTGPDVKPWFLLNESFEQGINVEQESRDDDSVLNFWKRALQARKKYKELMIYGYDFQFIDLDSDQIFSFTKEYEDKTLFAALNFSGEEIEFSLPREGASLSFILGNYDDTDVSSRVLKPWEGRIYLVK

IC50 [µM] | Structure (SMILES)
18.9 ± 2.3 | CO[C@@H]1OC(=O)C(c2ccc(O)cc2)=C1Cc1ccc2c(c1)CCC(C)(C)O2 [4b, (+)-Asperteretone D]
48.9 ± 7.3 | COC1OC(=O)C(c2ccc(O)cc2)=C1Cc1ccc(O)c(CCC(C)(C)O)c1 (stereo not drawn) [compound 5, Asperteretone E]
15.7 ± 1.1 | CO[C@H]1OC(=O)C(c2ccc(O)cc2)=C1Cc1ccc2c(c1)CCC(C)(C)O2 [4a, (−)-Asperteretone D]
49.8 ± 5.7 | COc1ccc(C2=C(Cc3ccc4c(c3)CC(C(C)(C)O)O4)[C@H](OC)OC2=O)cc1 (single isomer, unassigned; (+)) [3b, (+)-Asperteretone C]

The remaining lines, values behind:

Structure (SMILES) | IC50 [µM]
CO[C@@H]1OC(=O)C(c2ccc(O)cc2)=C1Cc1ccc(O)c(CC=C(C)C)c1 [2b, (+)-Asperteretone B] | 19.2 ± 1.9
COc1ccc(C2=C(Cc3ccc4c(c3)CC(C(C)(C)O)O4)[C@@H](OC)OC2=O)cc1 (single isomer, unassigned; (-)) [3a, (−)-Asperteretone C] | 52.2 ± 4.6
CO[C@H]1OC(=O)C(c2ccc(O)cc2)=C1Cc1ccc(O)c(CC=C(C)C)c1 [2a, (−)-Asperteretone B] | 17.3 ± 2.4
COC(=O)[C@H](Cc1ccc(O)c(CC=C(C)C)c1)[C@@H](C(=O)O)c1ccc(O)cc1 [1b, (+)-Asperteretone A] | 53.1 ± 1.4
COC(=O)[C@@H](Cc1ccc(O)c(CC=C(C)C)c1)[C@H](C(=O)O)c1ccc(O)cc1 [1a, (−)-Asperteretone A] | 45.4 ± 3.8
